The numbers were not newly measured in patent publication US9427470B2, “Hyaluronic acid stabilizer” (priority 2012, dated 2016), which cites them from elsewhere.

The data set deals with CD44 (Homo sapiens, UniProt P16070). The settings on record: Aruffo, et al., 1990.
Chain of CD44 (P16070 21-742, species assumed): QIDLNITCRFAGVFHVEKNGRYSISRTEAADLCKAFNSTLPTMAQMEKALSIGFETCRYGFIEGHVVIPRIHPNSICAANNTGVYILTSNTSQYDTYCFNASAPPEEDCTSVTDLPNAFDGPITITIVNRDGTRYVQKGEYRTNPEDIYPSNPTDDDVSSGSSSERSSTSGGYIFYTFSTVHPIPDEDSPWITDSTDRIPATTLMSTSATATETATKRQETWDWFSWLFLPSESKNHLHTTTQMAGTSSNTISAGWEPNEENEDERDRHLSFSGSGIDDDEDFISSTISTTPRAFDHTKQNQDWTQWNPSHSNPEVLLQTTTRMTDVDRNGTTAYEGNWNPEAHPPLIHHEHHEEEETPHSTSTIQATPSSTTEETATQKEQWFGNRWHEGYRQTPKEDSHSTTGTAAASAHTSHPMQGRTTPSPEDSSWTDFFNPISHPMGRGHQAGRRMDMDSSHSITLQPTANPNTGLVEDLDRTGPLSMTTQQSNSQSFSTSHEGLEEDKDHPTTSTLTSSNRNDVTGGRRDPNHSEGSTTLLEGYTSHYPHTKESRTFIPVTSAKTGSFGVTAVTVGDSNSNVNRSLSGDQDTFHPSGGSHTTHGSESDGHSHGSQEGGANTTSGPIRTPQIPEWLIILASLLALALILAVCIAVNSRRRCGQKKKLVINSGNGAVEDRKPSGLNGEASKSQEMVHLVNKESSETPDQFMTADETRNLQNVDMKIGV

Regarding Hyaluronic acid [HA], the “strength of bond to CD44 relative to chondroitin sulfate” value was “about 100 times”.
